# Values quoted from earlier work in US20240139480A1, “RETENTIVE DEVICES FOR GASTROINTESTINAL TRACT” (Teva Pharmaceutical Industries Ltd., priority 2021, published 2024).
# Conditions: given as ester prodrug; extensive intestinal esterase degradation
smiles,measurement,value
CC(C)OC(=O)OCOP(=O)(CO[C@H](C)Cn1cnc2c(N)ncnc21)OCOC(=O)OC(C)C [Tenofovir disoproxil],bioavailability,about 30%
